# Reference: US5428048A, “Aryl-N-hydroxyureas as inhibitors of 5-lipoxygenase and anto-arteriosclerotic agents” (American Home Products Corporation, priority 1993, dated 1995)
# Tested on: LTB4 Synthesis
# Assay: Reverse Passive Arthus Reaction (pleurisy, LTB4 in pleural exudate)
# Assay type: in vivo, male Lewis rats
# Protocol: 3. Reverse Passive Arthus Reaction
# A reverse passive Arthus reaction is induced in the pleural cavity of male Lewis rats (150°-200 g; fasted overnight prior to use) by the intravenous administration of bovine serum albumin (BSA; 4 mg/0.2 ml) followed 30 minutes later by the injection of rabbit anti-BSA (1 mg/0.2 ml; lyophilized IgG fraction; Organon Teknika, West Chester, Pa.) into the right pleural space under halothane anesthesia. Drugs or vehicle (0.5% Tween-80) control are administered orally in a volume of 1 ml/100 g body weight at 1 hour prior to the anti-BSA. Animals are sacrificed at either the time of peak eicosanoid production (i.e. 5 minutes after anti-BSA for immunoreactive TxB2, 10 minutes for immunoreactive LTB4, 20 minutes for immunoreactive LTC4) or at the time of peak neutrophil infiltration (4 hours after anti-BSA) by CO2 inhalation. The pleural cavity is then exposed, the fluid exudate removed by gentle vacuum aspiration and the volume of exudate is recorded. For the determination of cellular infiltration, the pleural cavity is rinsed with 3 ml of 0.1% EDTA in sterile saline, and the recovered wash is pooled with the exudate. Cell number is determined on a model ZBI Coulter counter. For determination of eicosanoid production, undiluted pleural exudate is microfuged and the supernatant is extracted with ethanol (8-10 times volume). Extracts are either stored at -20° C., or are evaporated to dryness under a stream of N2 and reconstituted in radioimmunoassay (RIA) buffer.
# Eicosanoids are quantitated by RIA according to the procedure specified by the RIA kit manufacturer (Advanced Magnetics, Cambridge, MA). Briefly, 100 μl of ^3 H-labeled eicosanoid and 100 μl of specific antibody ,are sequentially added to 100 μl of extracted pleural exudate in BGG-phosphate buffer which contains 0.01M phosphate, 0.1% bovine gamma globulin and 0.1% sodium azide at pH 7.0. Antibody-bound eicosanoid is separated from unbound eicosanoid by the addition of 750 μl of dextran (0.4%)-coated charcoal (Norit A) containing 0.1% sodium azide. The mixture is centrifuged at 2000 RPM at 5° C. for 15 minutes to pellet the charcoal and adsorbed unbound eicosanoid. Antibody-bound labeled eicosanoid is quantitated by counting in a liquid scintillation counter, and is correlated to concentration by a standard curve.
Structure (SMILES),% Inhibition LTB4 Synthesis (25 mg/kg p.o.) [%],% Inhibition LTB4 Synthesis (10 mg/kg p.o.) [%]
"NC(=O)N(O)Cc1ccc(OCCc2noc(-c3ccccc3)n2)cc1 [Example 21, 1-hydroxy-1-[4-[2-(5-phenyl-[1,2,4]-oxadiazol-3-yl)-ethoxy]-benzyl]-urea]",19,–
Cc1oc(-c2ccccc2)nc1CCOc1ccc(CN(O)C(N)=O)cc1 [Example 1],35,–
"Cc1oc(-c2ccc(C(F)(F)F)cc2)nc1CCOc1ccc(CN(O)C(N)=O)cc1 [Example 13, 1-Hydroxy-1-[4-[2-[5-methyl-2(4-trifluoromethyl-phenyl)-oxazol-4-yl]-ethoxy]benzyl]-urea]",–,91
